From patent US9115137B2, “2,3,4,5-tetrahydro-1H-pyrido[4,3-B]indole compounds and methods of use thereof” (priority 2008, dated 2015)

Legend:
[1] = target: T1, human recombinant serotonin (5-Hydroxytryptamine) 5-HT6 receptor (Homo sapiens, UniProt P50406); test: Serotonin 5-HT6 radioligand binding ([3H]LSD); conditions: compound at 1 μM; HeLa cells; read-out: Serotonin (1 μM) 5-HT6, percent inhibition of specific binding
T1 construct: expressed in transfected cells; host or cells: human HeLa cells
T1 sequence (P50406 whole entry): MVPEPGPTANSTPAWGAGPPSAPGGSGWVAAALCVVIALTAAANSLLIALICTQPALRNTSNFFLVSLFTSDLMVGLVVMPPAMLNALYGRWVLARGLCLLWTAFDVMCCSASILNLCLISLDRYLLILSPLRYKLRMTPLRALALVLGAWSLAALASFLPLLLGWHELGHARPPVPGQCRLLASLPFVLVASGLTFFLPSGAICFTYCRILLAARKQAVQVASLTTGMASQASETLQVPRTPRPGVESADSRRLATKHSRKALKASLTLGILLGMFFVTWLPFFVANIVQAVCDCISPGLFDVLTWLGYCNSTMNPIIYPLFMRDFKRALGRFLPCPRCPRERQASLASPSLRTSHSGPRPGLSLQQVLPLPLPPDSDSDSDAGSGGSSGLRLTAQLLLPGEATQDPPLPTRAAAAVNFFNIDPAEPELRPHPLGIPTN
Experimental: To evaluate in radioligand binding assays the activity of compounds of the invention, human recombinant serotonin (5-Hydroxytryptamine) 5-HT6 receptor expressed in human HeLa cells (Monsma, F. J. Jr. et al., Mol. Pharmacol. 43:320, 1993) in a modified Tris-HCl buffer (50 mM Tris-HCl, pH 7.4, 150 mM NaCl, 2 mM Ascorbic Acid, 0.001% BSA) was used. Compounds of the invention were incubated with 1.5 nM [3H]Lysergic acid diethylamide (LSD) for 120 minutes at 37° C. Non-specific binding was estimated in the presence of 5 μM Serotonin (5-HT). Receptor proteins were filtered and washed, the filters were then counted to determine [3H]LSD specifically bound. Compounds were screened at 1 μM or lower, using 1% DMSO as vehicle. Biochemical assay results are presented as the percent inhibition of specific binding in Table 7.

[2] = target: T2, human recombinant histamine H1 receptor (Homo sapiens, UniProt P35367); test: Histamine H1 radioligand binding ([3H]Pyrilamine); conditions: compound at 1 μM; CHO cells; read-out: Histamine Binding (1 μM) H1, percent inhibition of specific binding
T2 construct: expressed in transfected cells; host or cells: CHO cells
T2 sequence (P35367 whole entry): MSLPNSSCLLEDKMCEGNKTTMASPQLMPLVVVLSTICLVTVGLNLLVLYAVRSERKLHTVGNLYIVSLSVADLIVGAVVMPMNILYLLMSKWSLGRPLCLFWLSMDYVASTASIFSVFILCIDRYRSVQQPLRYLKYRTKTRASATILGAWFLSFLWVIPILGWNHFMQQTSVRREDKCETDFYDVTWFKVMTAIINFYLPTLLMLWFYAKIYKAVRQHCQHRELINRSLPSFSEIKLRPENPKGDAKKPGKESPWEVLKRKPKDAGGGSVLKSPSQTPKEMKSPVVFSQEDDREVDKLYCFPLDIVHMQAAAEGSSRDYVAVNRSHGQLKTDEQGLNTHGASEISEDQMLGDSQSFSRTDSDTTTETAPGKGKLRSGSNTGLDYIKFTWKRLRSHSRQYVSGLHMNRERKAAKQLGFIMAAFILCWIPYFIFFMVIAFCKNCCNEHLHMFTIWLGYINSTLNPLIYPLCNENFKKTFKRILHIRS
Experimental: To evaluate in radioligand binding assays the activity of compounds of the invention, human recombinant histamine H1 receptor expressed in Chinese hamster ovary (CHO) cells (De Backer, M. D. et al., Biochem. Biophys. Res. Comm. 197(3):1601, 1993) in a modified Tris-HCl buffer (50 mM Tris-HCl, pH 7.4, 2 mM MgCl2, 100 mM NaCl, 250 mM Sucrose) was used. Compounds of the invention were incubated with 1.2 nM [^3H]Pyrilamine for 180 minutes at 25° C. Non-specific binding was estimated in the presence of 1 μM pyrilamine. Receptor proteins were filtered and washed, the filters were then counted to determine [^3H]Pyrilamine specifically bound. Compounds were screened at 1 μM, using 1% DMSO as vehicle. Biochemical assay results are presented as the percent inhibition of specific binding in Table 5.

[3] = target: T3, human recombinant adrenergic α1D receptor (Homo sapiens, UniProt P25100); test: Adrenergic α1D radioligand binding ([3H]Prozosin); conditions: compound at 1 μM; HEK-293 cells; read-out: Adrenergic (1 μM) α1D, percent inhibition of specific binding
T3 construct: expressed in transfected cells; host or cells: HEK-293 cells
T3 sequence (P25100 1-572): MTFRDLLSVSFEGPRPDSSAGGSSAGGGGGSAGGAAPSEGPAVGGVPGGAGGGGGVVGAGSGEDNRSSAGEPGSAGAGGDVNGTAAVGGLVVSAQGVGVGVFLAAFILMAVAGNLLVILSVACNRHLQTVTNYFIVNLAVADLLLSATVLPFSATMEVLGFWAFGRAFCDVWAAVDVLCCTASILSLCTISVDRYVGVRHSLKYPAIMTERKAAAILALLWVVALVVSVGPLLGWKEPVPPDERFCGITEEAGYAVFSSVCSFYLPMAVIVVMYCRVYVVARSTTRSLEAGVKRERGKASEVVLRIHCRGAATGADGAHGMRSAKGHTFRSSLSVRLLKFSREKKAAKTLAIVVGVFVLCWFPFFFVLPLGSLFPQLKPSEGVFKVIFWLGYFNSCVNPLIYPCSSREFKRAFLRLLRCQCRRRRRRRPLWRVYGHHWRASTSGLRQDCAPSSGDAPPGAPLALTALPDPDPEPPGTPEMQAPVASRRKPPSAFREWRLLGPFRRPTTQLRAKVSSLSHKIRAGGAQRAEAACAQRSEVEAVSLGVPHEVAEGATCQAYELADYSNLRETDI
Experimental: To evaluate in radioligand binding assays the activity of compounds of the invention, human recombinant adrenergic α1D receptor expressed in human embryonic kidney (HEK-293) cells (Kenny, B. A. et al. Br. J. Pharmacol. 115(6):981, 1995) in a 50 mM Tris-HCl buffer, pH 7.4, was used. Compounds of invention were incubated with 0.6 nM [^3H]Prozosin for 60 minutes at 25° C. Non-specific binding was estimated in the presence of 10 μM phentolamine. Receptor proteins were filtered and washed, the filters were then counted to determine [^3H]Prozosin specifically bound. Compounds were screened at 1 μM or lower, using 1% DMSO as vehicle. Biochemical assay results are presented as the percent inhibition of specific binding in Table 6.

[4] = target: T4, human recombinant histamine H2 receptor (Homo sapiens, UniProt P25021); test: Histamine H2 radioligand binding ([125I]aminopotentidine); conditions: compound at 1 μM; CHO K1 cells; read-out: Histamine Binding (1 μM) H2, percent inhibition of specific binding
T4 construct: expressed in transfected cells; host or cells: CHO-K1 cells
T4 sequence (P25021 whole entry): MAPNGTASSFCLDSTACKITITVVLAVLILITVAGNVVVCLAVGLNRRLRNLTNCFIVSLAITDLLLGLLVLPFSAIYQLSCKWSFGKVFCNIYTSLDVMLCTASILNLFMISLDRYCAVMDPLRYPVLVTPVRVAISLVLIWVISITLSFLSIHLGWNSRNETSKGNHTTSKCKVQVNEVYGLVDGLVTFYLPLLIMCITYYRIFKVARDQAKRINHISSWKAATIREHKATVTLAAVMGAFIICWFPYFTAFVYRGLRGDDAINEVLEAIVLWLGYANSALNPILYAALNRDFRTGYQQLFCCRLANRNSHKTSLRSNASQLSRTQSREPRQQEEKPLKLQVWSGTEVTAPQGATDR
Experimental: To evaluate in radioligand binding assays the activity of compounds of the invention, human recombinant histamine H2 receptor expressed in Chinese hamster ovary (CHO) K1 cells (Ruat, M., Proc. Natl. Acad. Sci. USA. 87(5):1658, 1990) in a 50 mM Phosphate buffer, pH 7.4 was used. Compounds of the invention were incubated with 0.1 nM [^125I]aminopotentidine for 120 minutes at 25° C. Non-specific binding was estimated in the presence of 3 μM Tiotidine. Receptor proteins were filtered and washed, the filters were then counted to determine [^125I]Aminopotentidine specifically bound. Compounds were screened at 1 μM, using 1% DMSO as vehicle. Biochemical assay results are presented as the percent inhibition of specific binding in Table 5.

Compound | inhibition at 1 µM [1] | inhibition at 1 µM [2] | inhibition at 1 µM [3] | inhibition at 1 µM [4]
Cc1ccc2c(c1)c1c(n2CCC(=O)NC2CCCC2)CCN(C)C1 [Compound 4, N-cyclopentyl-3-(1,2,3,4-tetrahydro-2,8-dimethylpyrido[4,3-b]indol-5-yl)propanamide] | 28% | 60% | 64% | 20%
CCOC(=O)CCCn1c2c(c3cc(C)ccc31)CN(C)CC2 [Compound 5, ethyl 4-(1,2,3,4-tetrahydro-2,8-dimethylpyrido[4,3-b]indol-5-yl)butanoate] | 88% | 96% | 70% | 48%
CCNC(=O)CCCn1c2c(c3cc(C)ccc31)CN(C)CC2 [Compound 6, N-ethyl-4-(1,2,3,4-tetrahydro-2,8-dimethylpyrido[4,3-b]indol-5-yl)butanamide] | 23% | 46% | 0% | 0%
Cc1ccc2c(c1)c1c(n2CCNC(=O)OCC(Cl)(Cl)Cl)CCN(C)C1 [Compound 8, 2,2,2-trichloroethyl 2-(1,2,3,4-tetrahydro-2,8-dimethylpyrido[4,3-b]indol-5-yl)ethylcarbamate] | 83% | 101% | 72% | 74%
CCOC(=O)Cn1c2c(c3cc(Cl)ccc31)CN(C)CC2 [Compound 10, ethyl 2-(8-chloro-1,2,3,4-tetrahydro-2-methylpyrido[4,3-b]indol-5-yl)acetate] | 69% | 99% | 50% | 28%
CC(C)OC(=O)Cn1c2c(c3cc(Cl)ccc31)CN(C)CC2 [Compound 11, isopropyl 2-(8-chloro-1,2,3,4-tetrahydro-2-methylpyrido[4,3-b]indol-5-yl)acetate] | 66% | 101% | 38% | 7%
CN1CCc2c(c3cc(Cl)ccc3n2CC(=O)OC(C)(C)C)C1 [Compound 12, tert-butyl 2-(8-chloro-1,2,3,4-tetrahydro-2-methylpyrido[4,3-b]indol-5-yl)acetate] | 67% | 101% | 13% | 40%
CN1CCc2c(c3cc(Cl)ccc3n2CC(=O)OCc2ccccc2)C1 [Compound 13, benzyl 2-(8-chloro-1,2,3,4-tetrahydro-2-methylpyrido[4,3-b]indol-5-yl)acetate] | 101% | 96% | 55% | 51%
CN1CCc2c(c3cc(Cl)ccc3n2CC(=O)OCC2CCCCC2)C1 [Compound 14, cyclohexylmethyl 2-(8-chloro-1,2,3,4-tetrahydro-2-methylpyrido[4,3-b]indol-5-yl)acetate] | 106% | 98% | 72% | 89%
CN1CCc2c(c3cc(Cl)ccc3n2CC(=O)OC2CCCC2)C1 [Compound 15] | 96% | 99% | 58% | 47%
CC(C)OC(=O)CCn1c2c(c3cc(Cl)ccc31)CN(C)CC2 [Compound 17, isopropyl 3-(8-chloro-1,2,3,4-tetrahydro-2-methylpyrido[4,3-b]indol-5-yl)propanoate] | 99% | 96% | 73% | 64%
CN1CCc2c(c3cc(Cl)ccc3n2CCC(=O)OCc2ccccc2)C1 [Compound 19, benzyl 3-(8-chloro-1,2,3,4-tetrahydro-2-methylpyrido[4,3-b]indol-5-yl)propanoate] | 100% | 101% | 83% | 81%
CN1CCc2c(c3cc(Cl)ccc3n2CCC(=O)OCC2CCCCC2)C1 [Compound 20, cyclohexylmethyl 3-(8-chloro-1,2,3,4-tetrahydro-2-methylpyrido[4,3-b]indol-5-yl)propanoate] | 93% | 95% | 90% | 93%
CN1CCc2c(c3cc(Cl)ccc3n2CCC(=O)OC2CCCC2)C1 [Compound 21, cyclopentyl 3-(8-chloro-1,2,3,4-tetrahydro-2-methylpyrido[4,3-b]indol-5-yl)propanoate] | 100% | 98% | 88% | 82%
CCNC(=O)Cn1c2c(c3cc(C)ccc31)CN(C)CC2 [Compound 22, N-ethyl-2-(1,2,3,4-tetrahydro-2,8-dimethylpyrido[4,3-b]indol-5-yl)acetamide] | 27% | 85% | 23% | 11%
Cc1ccc2c(c1)c1c(n2CC(=O)NC(C)C)CCN(C)C1 [Compound 23, 2-(1,2,3,4-tetrahydro-2,8-dimethylpyrido[4,3-b]indol-5-yl)-N-isopropylacetamide] | 3% | 65% | 15% | 1%
Cc1ccc2c(c1)c1c(n2CC(=O)NC(C)(C)C)CCN(C)C1 [Compound 24, N-tert-butyl-2-(1,2,3,4-tetrahydro-2,8-dimethylpyrido[4,3-b]indol-5-yl)acetamide] | 6% | 44% | -4% | 5%
Cc1ccc2c(c1)c1c(n2CC(=O)NCc2ccccc2)CCN(C)C1 [Compound 25, N-benzyl-2-(1,2,3,4-tetrahydro-2,8-dimethylpyrido[4,3-b]indol-5-yl)acetamide] | 58% | 72% | 22% | 9%
Cc1ccc2c(c1)c1c(n2CC(=O)NCC2CCCCC2)CCN(C)C1 [Compound 26, N-(cyclohexylmethyl)-2-(1,2,3,4-tetrahydro-2,8-dimethylpyrido[4,3-b]indol-5-yl)acetamide] | 34% | 66% | 32% | 22%
CN1CCc2c(c3cc(Cl)ccc3n2CC(=O)NC2CCCC2)C1 [Compound 27, 2-(8-chloro-1,2,3,4-tetrahydro-2-methylpyrido[4,3-b]indol-5-yl)-N-cyclopentylacetamide] | 13% | 63% | 18% | 5%
